{
  "source": "patent US9101638B2",
  "about": "“Boronic acid derivatives and therapeutic uses thereof” (Rempex Pharmaceuticals, Inc., priority 2013, dated 2015)",
  "key": {"Thrombin": {"biological_target": "T1, Thrombin (Homo sapiens, UniProt P00734)", "T1 construct": "Thrombin; MPBio; 19491880; purchased MPBio 19491880", "experiment": "Serine protease inhibition: thrombin", "assay_type": "biochemical, mammalian", "method": "(§1) The effect of selected BLIs on the enzymatic activity of some common mammalian serine proteases was evaluated.\n(§2) 50 μl of the diluted enzyme was mixed with 50 μl of inhibitor at various concentrations and 50 μl of corresponding buffer (Table 7). Reaction mixtures were incubated for 10 min at 37° C. Subsequently, 50 μl of corresponding substrate (Table 7) was added and absorbance or fluorescence was monitored for 30 min on SpectraMax M2 plate reader (Molecular Devices). 4-(2-Aminoethyl)benzenesulfonyl fluoride hydrochloride (AEBSF) and leupeptin were used as positive controls. Rates of reaction were calculated and presented relative to “no treatment” control."}, "Neutrophil elastase": {"biological_target": "T2, Neutrophil elastase (Homo sapiens, UniProt P08246)", "T2 construct": "purchased Calbiochem 324681", "T2 sequence (P08246 30-267)": "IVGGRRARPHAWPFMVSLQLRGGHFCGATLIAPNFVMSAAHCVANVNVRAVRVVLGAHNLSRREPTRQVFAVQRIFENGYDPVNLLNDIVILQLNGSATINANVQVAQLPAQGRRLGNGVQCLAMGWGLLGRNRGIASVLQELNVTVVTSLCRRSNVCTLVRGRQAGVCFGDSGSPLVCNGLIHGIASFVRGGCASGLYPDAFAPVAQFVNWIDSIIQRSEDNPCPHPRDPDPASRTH", "experiment": "Serine protease inhibition: neutrophil elastase", "assay_type": "biochemical, mammalian", "method": "as §1, §2"}, "Chymase": {"biological_target": "T3, Chymase (Homo sapiens, UniProt P23946)", "T3 construct": "purchased Enzo Lifescience BML-SE281", "T3 sequence (P23946 22-247)": "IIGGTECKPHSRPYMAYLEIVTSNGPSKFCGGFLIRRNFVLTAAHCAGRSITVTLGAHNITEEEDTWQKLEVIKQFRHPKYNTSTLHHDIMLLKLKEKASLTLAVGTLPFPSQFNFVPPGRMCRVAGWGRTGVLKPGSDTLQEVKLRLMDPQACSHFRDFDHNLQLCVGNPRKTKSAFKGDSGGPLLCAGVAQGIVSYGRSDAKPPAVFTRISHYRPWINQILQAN", "experiment": "Serine protease inhibition: chymase", "assay_type": "biochemical, mammalian", "method": "as §1, §2"}, "Urokinase": {"biological_target": "T4, Urokinase (Homo sapiens, UniProt P00749)", "T4 construct": "purchased Calbiochem 672112", "experiment": "Serine protease inhibition: urokinase", "assay_type": "biochemical, mammalian", "method": "as §1, §2"}, "CathepsinA": {"biological_target": "T5, CathepsinA (Homo sapiens, UniProt P10619)", "T5 construct": "purchased R&D Systems 1049-SE", "T5 sequence (P10619 29-480)": "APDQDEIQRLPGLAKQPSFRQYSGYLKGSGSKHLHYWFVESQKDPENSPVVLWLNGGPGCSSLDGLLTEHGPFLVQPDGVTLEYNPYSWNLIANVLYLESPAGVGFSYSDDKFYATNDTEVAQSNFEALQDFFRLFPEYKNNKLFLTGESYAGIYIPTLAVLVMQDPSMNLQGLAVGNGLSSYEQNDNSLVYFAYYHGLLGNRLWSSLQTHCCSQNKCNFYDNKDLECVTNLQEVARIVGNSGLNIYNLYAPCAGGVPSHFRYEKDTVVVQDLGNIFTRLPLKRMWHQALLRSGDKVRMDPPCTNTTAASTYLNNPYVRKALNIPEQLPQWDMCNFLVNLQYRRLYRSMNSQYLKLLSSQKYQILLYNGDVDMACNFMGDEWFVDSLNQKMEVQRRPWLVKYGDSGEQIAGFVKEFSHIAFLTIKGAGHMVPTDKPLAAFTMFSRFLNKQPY", "experiment": "Serine protease inhibition: cathepsin A", "assay_type": "biochemical, mammalian", "conditions": "Table 8B; read-out: IC50 CathepsinA", "method": "as §1, §2"}, "ec308 (SHV-5) [1]": {"tested_on": "ec308 (SHV-5)", "experiment": "Potentiation of aztreonam, strain ec308", "assay_type": "cell-based", "conditions": "minimum BLI concentration inhibiting growth with 4 μg/mL aztreonam"}, "ec302 (TEM-10) [2]": {"tested_on": "ec302 (TEM-10)", "experiment": "Potentiation of aztreonam, strain ec302", "assay_type": "cell-based"}, "EC1010 (CMY-6) [3]": {"tested_on": "EC1010 (CMY-6)", "assay_type": "cell-based"}, "SHV-12": {"biological_target": "SHV-12 (Klebsiella pneumoniae, UniProt P0AD64, E235K/G234S/L31Q)", "sequence (P0AD64 22-286 L31Q/G234S/E235K)": "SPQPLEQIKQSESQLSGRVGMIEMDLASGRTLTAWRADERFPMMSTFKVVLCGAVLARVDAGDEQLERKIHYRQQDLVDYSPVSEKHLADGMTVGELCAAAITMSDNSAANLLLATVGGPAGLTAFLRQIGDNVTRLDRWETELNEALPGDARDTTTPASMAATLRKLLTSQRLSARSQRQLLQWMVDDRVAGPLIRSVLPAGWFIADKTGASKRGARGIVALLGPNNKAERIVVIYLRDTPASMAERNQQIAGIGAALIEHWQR", "experiment": "Inhibition of nitrocefin cleavage by purified SHV-12", "assay_type": "biochemical", "conditions": "nitrocefin reporter substrate, purified enzyme; read-out: Ki (SHV-12, NCF)", "method": "(§3) Purified enzymes were mixed with various concentrations of inhibitors in reaction buffer and incubated for 10 min at room temperature. Nitrocefin was added and substrate cleavage profiles were recorded at 490 nm every 10 sec for 10 min."}, "[4]": {"biological_target": "T6, Dipeptidyl peptidase 9 (DPP9) (Homo sapiens, UniProt Q86TI2)", "T6 construct": "purchased BPS Bioscience 80090", "T6 sequence (Q86TI2 whole entry)": "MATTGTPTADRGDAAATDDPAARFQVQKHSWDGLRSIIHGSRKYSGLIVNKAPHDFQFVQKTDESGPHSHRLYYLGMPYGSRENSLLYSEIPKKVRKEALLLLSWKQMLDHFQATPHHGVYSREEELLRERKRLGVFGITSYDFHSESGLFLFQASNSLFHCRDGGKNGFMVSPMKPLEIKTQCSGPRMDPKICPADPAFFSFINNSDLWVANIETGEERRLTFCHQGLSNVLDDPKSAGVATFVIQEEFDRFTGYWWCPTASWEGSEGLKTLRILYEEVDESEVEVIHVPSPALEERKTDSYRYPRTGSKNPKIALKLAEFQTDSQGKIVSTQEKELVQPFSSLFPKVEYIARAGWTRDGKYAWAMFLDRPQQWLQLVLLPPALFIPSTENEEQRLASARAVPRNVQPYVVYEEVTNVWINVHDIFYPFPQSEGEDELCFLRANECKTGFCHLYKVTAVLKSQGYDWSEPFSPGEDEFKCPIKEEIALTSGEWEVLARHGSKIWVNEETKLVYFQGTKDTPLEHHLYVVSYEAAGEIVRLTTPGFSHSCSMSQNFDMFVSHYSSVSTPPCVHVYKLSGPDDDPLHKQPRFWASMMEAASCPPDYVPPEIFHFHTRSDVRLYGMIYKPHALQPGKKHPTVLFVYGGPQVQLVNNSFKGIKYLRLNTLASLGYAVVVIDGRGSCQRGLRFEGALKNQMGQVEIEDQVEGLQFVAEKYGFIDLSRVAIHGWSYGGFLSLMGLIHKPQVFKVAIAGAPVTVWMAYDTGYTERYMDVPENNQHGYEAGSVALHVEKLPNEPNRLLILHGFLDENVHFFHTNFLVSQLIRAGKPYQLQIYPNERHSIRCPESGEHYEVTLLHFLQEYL", "experiment": "Serine protease inhibition: DPP9", "assay_type": "biochemical, mammalian", "conditions": "Table 8B; read-out: IC50 DPP9", "method": "as §1, §2"}, "ec308 (SHV-5) [5]": {"tested_on": "ec308 (SHV-5)", "experiment": "Potentiation of tigemonam, strain ec308", "assay_type": "cell-based", "conditions": "minimum BLI concentration inhibiting growth with 4 μg/mL tigemonam"}, "EC1010 (CMY-6) [6]": {"tested_on": "EC1010 (CMY-6)", "experiment": "Potentiation of aztreonam, strain EC1010", "assay_type": "cell-based"}, "KP1005 (CTX-M-14)": {"tested_on": "KP1005 (CTX-M-14)", "experiment": "Potentiation of aztreonam, strain KP1005", "assay_type": "cell-based"}, "[7]": {"biological_target": "T7, Dipeptidyl peptidase 8 (DPP8) (Homo sapiens, UniProt Q6V1X1)", "T7 construct": "purchased BPS Bioscience 80080", "T7 sequence (Q6V1X1 whole entry)": "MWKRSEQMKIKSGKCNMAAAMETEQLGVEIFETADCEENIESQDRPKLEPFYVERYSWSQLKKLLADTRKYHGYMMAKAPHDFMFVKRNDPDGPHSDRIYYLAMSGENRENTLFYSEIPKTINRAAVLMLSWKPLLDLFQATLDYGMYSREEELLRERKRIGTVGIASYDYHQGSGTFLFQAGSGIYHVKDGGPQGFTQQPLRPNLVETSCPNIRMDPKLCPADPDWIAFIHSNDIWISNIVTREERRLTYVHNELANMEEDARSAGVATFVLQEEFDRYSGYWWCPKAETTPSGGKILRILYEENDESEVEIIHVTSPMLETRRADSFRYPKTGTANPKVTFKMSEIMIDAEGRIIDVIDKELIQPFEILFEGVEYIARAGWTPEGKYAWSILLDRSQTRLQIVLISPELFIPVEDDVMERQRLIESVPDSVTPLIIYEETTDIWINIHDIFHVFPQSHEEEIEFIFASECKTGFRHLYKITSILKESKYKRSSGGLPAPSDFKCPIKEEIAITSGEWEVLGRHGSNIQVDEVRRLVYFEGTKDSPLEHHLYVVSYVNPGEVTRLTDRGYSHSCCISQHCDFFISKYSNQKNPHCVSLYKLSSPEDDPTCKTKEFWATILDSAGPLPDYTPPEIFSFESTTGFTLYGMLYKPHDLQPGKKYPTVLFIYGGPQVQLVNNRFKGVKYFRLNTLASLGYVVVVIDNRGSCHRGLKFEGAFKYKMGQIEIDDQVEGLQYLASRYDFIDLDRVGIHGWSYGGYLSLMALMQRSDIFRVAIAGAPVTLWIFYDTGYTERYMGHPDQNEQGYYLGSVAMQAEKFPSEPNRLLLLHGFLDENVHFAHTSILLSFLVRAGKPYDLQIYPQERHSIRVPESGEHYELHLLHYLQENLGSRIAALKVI", "experiment": "Serine protease inhibition: DPP8", "assay_type": "biochemical, mammalian", "conditions": "Table 8B; read-out: IC50 DPP8", "method": "as §1, §2"}, "KP1004 (K-2)": {"tested_on": "KP1004 (K-2)", "experiment": "Potentiation of aztreonam, strain KP1004", "assay_type": "cell-based", "conditions": "minimum BLI concentration inhibiting growth with 4 μg/mL aztreonam"}, "KP1009 (CTX-M-15) [8]": {"tested_on": "KP1009 (CTX-M-15)", "experiment": "Potentiation of tigemonam, strain KP1009", "conditions": "minimum BLI concentration inhibiting growth with 4 μg/mL tigemonam"}, "ECL1002": {"tested_on": "ECL1002", "experiment": "Potentiation of aztreonam, strain ECL1002", "assay_type": "cell-based", "conditions": "minimum BLI concentration inhibiting growth with 4 μg/mL aztreonam"}, "CathepsinG": {"biological_target": "T8, CathepsinG (Homo sapiens, UniProt P08311)", "T8 construct": "purchased EMD Millipore 219373", "T8 sequence (P08311 21-244)": "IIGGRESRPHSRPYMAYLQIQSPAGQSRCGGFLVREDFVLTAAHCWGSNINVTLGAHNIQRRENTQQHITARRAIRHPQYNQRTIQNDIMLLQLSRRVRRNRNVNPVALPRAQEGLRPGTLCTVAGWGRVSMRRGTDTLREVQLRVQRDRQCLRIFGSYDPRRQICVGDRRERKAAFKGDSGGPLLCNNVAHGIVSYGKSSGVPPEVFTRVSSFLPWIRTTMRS", "experiment": "Serine protease inhibition: cathepsin G", "assay_type": "biochemical, mammalian", "conditions": "Table 8B", "method": "as §1, §2"}, "KPC-2": {"biological_target": "KPC-2 (Klebsiella pneumoniae, UniProt Q9F663)", "sequence (Q9F663 25-293, looked up, species assumed)": "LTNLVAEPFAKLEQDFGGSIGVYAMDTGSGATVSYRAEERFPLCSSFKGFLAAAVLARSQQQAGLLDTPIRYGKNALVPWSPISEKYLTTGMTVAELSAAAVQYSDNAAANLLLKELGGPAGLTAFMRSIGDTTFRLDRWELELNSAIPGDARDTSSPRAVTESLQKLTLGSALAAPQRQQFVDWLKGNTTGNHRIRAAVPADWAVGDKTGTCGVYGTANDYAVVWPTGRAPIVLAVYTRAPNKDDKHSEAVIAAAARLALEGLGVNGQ", "experiment": "Inhibition of nitrocefin cleavage by purified KPC-2", "assay_type": "biochemical", "conditions": "nitrocefin reporter substrate, purified enzyme; read-out: Ki (KPC-2, NCF)", "method": "as §3"}, "CTX-M-14": {"biological_target": "CTX-M-14 (Escherichia coli, UniProt Q9L5C7)", "sequence (Q9L5C7 entry or part of it)": "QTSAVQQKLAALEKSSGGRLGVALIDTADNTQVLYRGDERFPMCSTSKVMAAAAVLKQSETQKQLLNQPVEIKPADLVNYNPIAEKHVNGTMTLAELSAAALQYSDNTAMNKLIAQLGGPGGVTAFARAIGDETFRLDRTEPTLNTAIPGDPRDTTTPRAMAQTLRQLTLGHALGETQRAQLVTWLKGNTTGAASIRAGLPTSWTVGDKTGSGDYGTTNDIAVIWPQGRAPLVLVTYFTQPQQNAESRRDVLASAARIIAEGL", "experiment": "Inhibition of nitrocefin cleavage by purified CTX-M-14", "assay_type": "biochemical", "conditions": "nitrocefin reporter substrate, purified enzyme; read-out: Ki (CTX-M-14, NCF)", "method": "as §3"}, "ec302 (TEM-10) [9]": {"tested_on": "ec302 (TEM-10)", "experiment": "Potentiation of tigemonam, strain ec302", "assay_type": "cell-based"}, "KP1009 (CTX-M-15) [10]": {"tested_on": "KP1009 (CTX-M-15)", "experiment": "Potentiation of aztreonam, strain KP1009", "assay_type": "cell-based"}, "Chymotrypsin": {"biological_target": "T9, Chymotrypsin (Bos taurus, UniProt P00766)", "T9 construct": "purchased Calbiochem 230832", "experiment": "Serine protease inhibition: chymotrypsin", "assay_type": "biochemical, mammalian", "conditions": "Table 8A, class symbols; read-out: IC50 Chymotrypsin", "method": "as §1, §2"}},
  "note": "Structures can show the parent of a compound that is named as a salt. Where two headings read alike, the source gives them in different places.",
  "data": [
    {"smiles": "NCCc1ccc(S(=O)(=O)F)cc1", "note": "[AEBSF, 4-(2-Aminoethyl)benzenesulfonyl fluoride hydrochloride, reference compound]", "values": [
      {"measurement": "IC50", "setting": "Thrombin", "result": 100, "unit": "µM"},
      {"measurement": "IC50", "setting": "Neutrophil elastase", "result": "> 500", "unit": "µM"},
      {"measurement": "IC50", "setting": "Chymase", "result": 375, "unit": "µM"},
      {"measurement": "IC50", "setting": "Urokinase", "result": 8.2, "unit": "µM"}
    ]},
    {"smiles": "O=C(COCc1ccccc1)N[C@H]1Cc2cccc(C(=O)O)c2OB1O", "note": "[CPD B, reference compound]", "values": [
      {"measurement": "IC50", "setting": "Thrombin; Table 8A, class symbols, read-out: IC50 Thrombin", "result": "> 800", "unit": "µM"},
      {"measurement": "IC50", "setting": "CathepsinA", "result": "15 to 500", "unit": "µM"},
      {"measurement": "AZT MPC4 SHV-5 ec308", "setting": "ec308 (SHV-5) [1]", "result": "Y (Y = MIC of 1 μg/mL to 10 μg/mL)"},
      {"measurement": "IC50", "setting": "Neutrophil elastase; Table 8B, read-out: IC50 Neutrophil elastase", "result": "> 500", "unit": "µM"},
      {"measurement": "AZT MPC4 TEM-10 ec302", "setting": "ec302 (TEM-10) [2]", "result": "Z (key: X = MIC of less than 1 μg/mL; Y = MIC of 1 μg/mL to 10 μg/mL; Z = MIC of greater than 10 μg/mL)"},
      {"measurement": "TIG MPC4 CMY-6 EC1010", "setting": "EC1010 (CMY-6) [3]", "result": "Y (key: X = MIC of less than 1 μg/mL; Y = MIC of 1 μg/mL to 10 μg/mL; Z = MIC of greater than 10 μg/mL)"},
      {"measurement": "Ki", "setting": "SHV-12", "result": "< 0.001", "unit": "µM"},
      {"measurement": "IC50", "setting": "[4]", "result": "> 500", "unit": "µM"},
      {"measurement": "TIG MPC4 SHV-5 ec308", "setting": "ec308 (SHV-5) [5]", "result": "Y (Y = MIC of 1 μg/mL to 10 μg/mL)"},
      {"measurement": "IC50", "setting": "Chymase; Table 8A, class symbols, read-out: IC50 Chymase", "result": "300 to 800", "unit": "µM"},
      {"measurement": "AZT MPC4 CMY-6 EC1010", "setting": "EC1010 (CMY-6) [6]", "result": "Z (key: X = MIC of less than 1 μg/mL; Y = MIC of 1 μg/mL to 10 μg/mL; Z = MIC of greater than 10 μg/mL)"},
      {"measurement": "AZT MPC4 CTX-M-14 KP1005", "setting": "KP1005 (CTX-M-14)", "result": "Z (key: X = MIC of less than 1 μg/mL; Y = MIC of 1 μg/mL to 10 μg/mL; Z = MIC of greater than 10 μg/mL)"},
      {"measurement": "IC50", "setting": "[7]", "result": "15 to 500", "unit": "µM"},
      {"measurement": "AZT MPC4 K-2 KP1004", "setting": "KP1004 (K-2)", "result": "Z (Z = MIC of greater than 10 μg/mL)"},
      {"measurement": "TIG MPC4 CTX-M-15 KP1009", "setting": "KP1009 (CTX-M-15) [8]", "result": "Z (Z = MIC of greater than 10 μg/mL)"},
      {"measurement": "AZT MPC4 ECL1002", "setting": "ECL1002", "result": "Z (Z = MIC of greater than 10 μg/mL)"},
      {"measurement": "IC50", "setting": "CathepsinG", "result": "15 to 500", "unit": "µM"},
      {"measurement": "Ki", "setting": "KPC-2", "result": "> 0.01", "unit": "µM"},
      {"measurement": "Ki", "setting": "CTX-M-14", "result": "< 0.001", "unit": "µM"},
      {"measurement": "TIG MPC4 TEM-10 ec302", "setting": "ec302 (TEM-10) [9]", "result": "Z (key: X = MIC of less than 1 μg/mL; Y = MIC of 1 μg/mL to 10 μg/mL; Z = MIC of greater than 10 μg/mL)"},
      {"measurement": "AZT MPC4 CTX-M-15 KP1009", "setting": "KP1009 (CTX-M-15) [10]", "result": "Z (key: X = MIC of less than 1 μg/mL; Y = MIC of 1 μg/mL to 10 μg/mL; Z = MIC of greater than 10 μg/mL)"},
      {"measurement": "IC50", "setting": "Chymotrypsin", "result": "> 800", "unit": "µM"}
    ]}
  ]
}
